Reference: the NIST ThermoML archive (doi:10.1021/je5010214)

Conditions: Liquid, Vibrating tube method

CC(C)CO [2-methyl-1-propanol]
Conditions | mass density [kg/m3]
343.15 K, 50016 kPa | 802.401
343.15 K, 52079 kPa | 803.724
343.15 K, 54997 kPa | 805.581
343.15 K, 57987 kPa | 807.46
343.15 K, 62074 kPa | 809.959
343.15 K, 65051 kPa | 811.734
343.15 K, 66170 kPa | 812.401
343.16 K, 60015 kPa | 808.691
348.15 K, 94 kPa | 756.672
348.15 K, 293.8 kPa | 756.914
348.15 K, 481.9 kPa | 757.128
348.15 K, 763.5 kPa | 757.435
348.15 K, 1011 kPa | 757.701
348.15 K, 1981.1 kPa | 758.826
348.15 K, 3073.2 kPa | 759.88
348.15 K, 5089.9 kPa | 762.131
348.15 K, 7034.6 kPa | 764.092
348.15 K, 9052.5 kPa | 766.106
348.15 K, 9991.3 kPa | 767.026
348.15 K, 15042 kPa | 771.822
348.15 K, 17922 kPa | 774.408
348.15 K, 19893 kPa | 776.137
348.15 K, 22033 kPa | 777.985
348.15 K, 22381 kPa | 778.265
348.15 K, 28023 kPa | 782.927
348.15 K, 29922 kPa | 784.471
348.15 K, 33999 kPa | 787.493
348.15 K, 34980 kPa | 788.228
348.15 K, 37995 kPa | 790.467
348.15 K, 40072 kPa | 791.973
348.15 K, 41992 kPa | 793.388
348.15 K, 45082 kPa | 795.525
348.15 K, 48031 kPa | 797.589
348.15 K, 52067 kPa | 800.261
348.15 K, 55099 kPa | 802.242
348.15 K, 60084 kPa | 805.42
348.15 K, 62302 kPa | 806.758
348.15 K, 65219 kPa | 808.569
348.15 K, 66250 kPa | 809.201
348.16 K, 12060 kPa | 769.03
348.16 K, 25066 kPa | 780.513
348.16 K, 32007 kPa | 786.046
348.16 K, 32760 kPa | 786.619
348.16 K, 32941 kPa | 786.66
348.16 K, 50014 kPa | 798.878
348.16 K, 58146 kPa | 804.186
353.15 K, 98.1 kPa | 752.221
353.15 K, 305.8 kPa | 752.433
353.15 K, 384 kPa | 752.511
353.15 K, 558.5 kPa | 752.696
353.15 K, 929.4 kPa | 753.125
353.15 K, 1073.7 kPa | 753.289
353.15 K, 2082.7 kPa | 754.432
353.15 K, 3025.9 kPa | 755.465
353.15 K, 5017.9 kPa | 757.656
353.15 K, 6957.8 kPa | 759.69
353.15 K, 8976.6 kPa | 761.781
353.15 K, 9990.3 kPa | 762.812
353.15 K, 11934 kPa | 764.803
353.15 K, 14917 kPa | 767.603
353.15 K, 18020 kPa | 770.471
353.15 K, 19983 kPa | 772.259
353.15 K, 22060 kPa | 773.965
353.15 K, 24899 kPa | 776.429
353.15 K, 27951 kPa | 778.961
353.15 K, 29947 kPa | 780.584
353.15 K, 31942 kPa | 782.185
353.15 K, 32982 kPa | 782.978
353.15 K, 33037 kPa | 783.002
353.15 K, 33907 kPa | 783.604
353.15 K, 35053 kPa | 784.493
353.15 K, 37939 kPa | 786.664
353.15 K, 39830 kPa | 788.076
353.15 K, 41863 kPa | 789.556
353.15 K, 44753 kPa | 791.642
353.15 K, 47880 kPa | 793.816
353.15 K, 49780 kPa | 795.14
353.15 K, 51876 kPa | 796.535
353.15 K, 55023 kPa | 798.765
353.15 K, 55678 kPa | 799.178
353.15 K, 57869 kPa | 800.594
353.15 K, 59971 kPa | 801.962
353.15 K, 62015 kPa | 803.245
353.15 K, 64989 kPa | 805.09
353.15 K, 66151 kPa | 805.82
358.15 K, 91.6 kPa | 747.694
358.15 K, 304.9 kPa | 747.895
358.15 K, 517.3 kPa | 748.147
358.15 K, 850.1 kPa | 748.568
358.15 K, 1095.5 kPa | 748.835
358.15 K, 2101.6 kPa | 750.029
358.15 K, 3210.6 kPa | 751.303
358.15 K, 5324.2 kPa | 753.465
358.15 K, 7190.1 kPa | 755.483
358.15 K, 9074.3 kPa | 757.505
358.15 K, 10165 kPa | 758.644
358.15 K, 12208 kPa | 760.738
358.15 K, 13986 kPa | 762.552
358.15 K, 15000 kPa | 763.577
358.15 K, 17866 kPa | 766.293
358.15 K, 20104 kPa | 768.379
358.15 K, 27962 kPa | 775.177
358.15 K, 30131 kPa | 776.699
358.15 K, 32076 kPa | 778.299
358.15 K, 32938 kPa | 778.904
358.15 K, 33039 kPa | 779.08
358.15 K, 33914 kPa | 779.672
358.15 K, 34978 kPa | 780.53
358.15 K, 37986 kPa | 782.876
358.15 K, 39996 kPa | 784.402
358.15 K, 42079 kPa | 785.976
358.15 K, 45119 kPa | 788.207
358.15 K, 48100 kPa | 790.343
358.15 K, 49987 kPa | 791.672
358.15 K, 52101 kPa | 793.112
358.15 K, 54983 kPa | 795.084
358.15 K, 58017 kPa | 797.106
358.15 K, 60055 kPa | 798.438
358.15 K, 62083 kPa | 799.766
358.15 K, 65016 kPa | 801.626
358.15 K, 66339 kPa | 802.467
358.16 K, 22005 kPa | 770.073
358.16 K, 25079 kPa | 772.781
363.15 K, 53.2 kPa | 742.307
363.15 K, 125.5 kPa | 742.405
363.15 K, 320.3 kPa | 742.647
363.15 K, 562.5 kPa | 742.935
363.15 K, 892.5 kPa | 743.339
363.15 K, 1001.3 kPa | 743.446
363.15 K, 1911.6 kPa | 744.576
363.15 K, 2977.3 kPa | 745.832
363.15 K, 4957.5 kPa | 748.169
363.15 K, 6937.4 kPa | 750.436
363.15 K, 8892.9 kPa | 752.564
363.15 K, 10033 kPa | 753.801
363.15 K, 11914 kPa | 755.769
363.15 K, 14908 kPa | 758.826
363.15 K, 17925 kPa | 761.773
363.15 K, 19995 kPa | 763.754
363.15 K, 21953 kPa | 765.578
363.15 K, 24962 kPa | 768.273
363.15 K, 27932 kPa | 770.858
363.15 K, 30163 kPa | 772.879
363.15 K, 32029 kPa | 774.439
363.15 K, 33151 kPa | 775.369
363.15 K, 33315 kPa | 775.421
363.15 K, 34086 kPa | 776.049
363.15 K, 35189 kPa | 776.934
363.15 K, 37932 kPa | 779.076
363.15 K, 40070 kPa | 780.754
363.15 K, 41883 kPa | 782.107
363.15 K, 44755 kPa | 784.308
363.15 K, 48054 kPa | 786.713
363.15 K, 50037 kPa | 788.134
363.15 K, 51977 kPa | 789.492
363.15 K, 55048 kPa | 791.627
363.15 K, 57990 kPa | 793.615
363.15 K, 60071 kPa | 794.972
363.15 K, 62073 kPa | 796.302
363.15 K, 64996 kPa | 798.178
363.15 K, 66050 kPa | 798.847
